The record followed here is patent publication US20250027930A1, “SMALL MOLECULES FOR REPROGRAMING ANTI-TUMOR IMMUNITY OF T CELLS” (THE SCRIPPS RESEARCH INSTITUTE, priority 2021, published 2025).

One assay relates to OT-1 cells. Briefly: OT-I-Tcf7GFP splenocyte screen: proliferation and Tim3−TCF-1+ ratio. The assay is classed as cell-based, mouse. Particulars: Day7, 60 mM. As for the experimental part:
Cell number was recorded on day 3 and day 7. On day 7, cells were stained with anti-CD8a (PerCP-Cy5.5) and anti-Tim3 (BV421) antibodies for flow cytometry or plate reader analysis.
Because TCF1 expression positively correlates with T cell stemness, the greater signal of EGFP a T cell expresses, the less differentiated the T cell is. Furthermore, if the compound also facilitates T cells proliferation, there would be more T cells per well in comparison to the untreated control. Therefore, a compound that not only maintains TCF-1 expression but also facilitates T cell growth would produce the strongest green fluorescence intensity. […] GlcA stands for glucuronic acid.

In a further assay the test system is P14 cells. Briefly: P14 splenocyte in vitro activation, re-stimulation and expansion. Particulars: 60 mM; for Fold of proliferation, Normalized to W/O: P14 cells. The assay is classed as cell-based, mouse.
Another assay deals with B16-OVA tumor. Type of assay: in vivo, mouse. Particulars: treated T cells transferred to B16-OVA mice. How it is done: (§1) Naïve splenocytes from OT-1 mice were stimulated in vitro with OVA257-264 (500 nM) and IL-2 (60 IU/mL) in the presence or absence of an added compound for 3 days at a density of 1 million/mL (100 uL/well in 96/well plate), then expanded for 4 days. On day 7, PD-1, Tim3 and TCF-1 expressions were assessed by flow cytometry by staining cells with anti-CD8a (PerCP-Cy5.5), anti-Tim3 (BV421) and anti-TCF-1 (AF488) antibodies. For adoptive transfer, 0.6M B16-OVA cells (6×10^5) were inoculated subcutaneously 3 to 5 days before transfer in C57BL/6. On the day of adoptive transfer, mice were irradiated with 5 Gy X-ray, randomized according to tumor size, and intravenously injected with 0.2-0.3M of CD8+OT-1 T cells (2×10^5) expanded under different conditions, followed by administration of 50000 IU IL-2 every 12 h for four days. In the control group, mice were injected with cell-free vehicle only. For assessment of adoptive transfer of OT-1 CD8+ T cells activated and expanded by contacting the cells with fructose, on day 9 after transfer, anti-PD-1 (100 ug/mouse) was administered to the mice that had received T cell transfer. For assessment of adoptive transfer of OT-1 CD8+ T cells activated and expanded by contacting cells with Neu5Ac, on day 14 and day 21 after transfer, anti-PD-1 (100 ug/mouse) was administered to the mice that had received T cell transfer. The tumor growth was monitored every 3 to 4 days by measuring tumor size. Percent survival was also monitored and recorded within a period of 40 days post treatment. To evaluate tumor infiltrating OT-1 T cells, 0.6M B16-OVA cells (6×10^5) were inoculated subcutaneously 3 to 5 days before transfer in C57BL/6. On the day of adoptive transfer, mice were irradiated with 5 Gy X-ray, randomized according to tumor size, and intravenously injected with 0.2-0.3M of CD8+OT-1 T cells (2×10^5) expanded under different conditions, followed by administration of 50000 IU IL-2 every 12 h for four days. Tumors were then isolated and assessed for percentage of OT-I T cells from the total CD8+ T cells and OT-1 T cell number per gram of tumor tissue. To evaluate apoptosis, Naïve OT-1 splenocytes were stimulated by OVA257-264 (500 nM) without IL-2 in the presence of absence of sugars for 5 days followed by using Annexin V Apoptosis detection kit (Biolegend). […] To evaluate other cellular characteristics, naïve OT-1 splenocytes were stimulated by OVA257-264 (500 nM) with IL-2 (60 IU/mL) in the presence or absence of sugars for 7 or 8 days. On day 7 or 8 cells were taken and analyzed by assessment of ROS, NADPH/NADP+ ratio, and GSH/GSSG ratio.

For assay [1], the system named is OT-1 splenocytes. Briefly: Apoptosis (Annexin V) and IL-2 production of OT-1 splenocytes stimulated without IL-2. Type of assay: cell-based, mouse. Particulars: OVA257-264 500 nM without IL-2, 5 days. How it is done: as §1
Assay [2] concerns OT-1 splenocytes. Briefly: ROS, NADPH/NADP+ ratio and GSH/GSSG ratio of OT-1 splenocytes. The assay is classed as cell-based, mouse. Particulars: day 7 or 8, with IL-2; vs T cells not treated with sugar. As for the experimental part:
as §1

Assay [3] has as its system MC38 TSA-reactive CD8+ TILs. Briefly: Rapid expansion of TSA-reactive CD8+ TILs from MC38 tumors. Type of assay: cell-based, mouse. As for the experimental part:
Sugars were added at the beginning or during the expansion of the TILs, and kept till the end of expansion. On expansion day 9, phenotypes of the expanded T cells were assessed, and the cells were used for adoptive transfer (FIG. 6E). For adoptive transfer, 0.5 million cells (B16-OVA or MC38) were inoculated subcutaneously on each mouse on day 0, Listeria monocytogenes-OVA (LM-OVA) infection 0.5 million CFU/mice on day 1, and blood analysis was recorded on day 7.

The subject of another assay is TILs from B16-OVA tumor. The assay is classed as cell-based, mouse. The note with it: day 7 rapid expansion; vs without sugars. As for the experimental part:
TILs from B16-OVA tumor were isolated on day10 after inoculation, and Tim-3^−TCF/GFP^+ and Tim-3^+TCF/GFP^− in tetramer positive population were collected by live cell sorting (FIG. 15A). Phenotype features of Tim-3^−TCF/GFP^+ (FIG. 15B) and Tim-3^+TCF/GFP^− (FIG. 15C) were analyzed on day 7 after rapid expansion with feeder cells (TILs/feeder cell: 1/200) in the presence or absence of sugars.
To investigate which population that sugars mainly changed on T cells, B16-OVA cancer cells (7×10^5 cells) were subcutaneously inoculated into the left or right flank of TCF7^GFP mice expressing an EGFP fluorescent reporter from the endogenous Tcf7 locus, which enable us to track the expression of TCF-1 in live cells.

Another assay deals with OT-I splenocytes. Briefly: OT-I splenocyte culture with KRAS (G12C) inhibitors 9/12 and analogues. The assay is classed as cell-based, mouse. Particulars: added D0 at 5 uM or D3 at 5 uM or 10 uM, kept till day 7. How it is done: We performed additional studies to examine the observed activities of KRAS (G12C) inhibitors in modulating T cell properties. First, OT-I splenocytes were activated with OVA257-264 peptide (500 nM) for 3 days in the presence of 60 IU/mL IL-2 and cultured for another 7 days. Inhibitor 9 (i9) or inhibitor 12 (i12) was added on Day0 (D0) upon activation at 5 uM and the concentration was kept till day 7 or added on Day3 (D3) after activation at 5 uM or 10 uM and the concentration was kept till day 7 for analysis.
Other than inhibitors 9 and 12, we also tested activities of two analogues of these KRAS (G12C) inhibitors. The analogues, Z7 and Z6, are derived from Inhibitor 9 and Inhibitor 12, respectively. They have an alkynyl group for click reaction which is used for ABPP analysis to find the targets of the inhibitors (FIG. 18A). In the studies, OT-I splenocytes were activated with OVA257-264 peptide (500 nM) for 3 days in the presence of 60 IU/mL IL-2 and cultured for another 7 days. 5 uM […], i9, z6 or z7 were added on Day0 (DO) upon activation.
As noted above, Inhibitor 9 and Inhibitor 12 have a cysteine-reactive group ([…] and acrylamide) that allows covalent binding of i9 and i12 to a cysteine residue in proteins. We further tested two analogue compounds, ZT-1 and ZT-2, that are not capable of forming the covalent binding. […] Cell number was recorded on day 5 and day 7. […]

In the next assay the test system is anti-GD2 CAR-T cells. Kind of assay: Anti-GD2 CAR-T cell expansion with Inhibitor 9/12, phenotype and cell number.
The mark [4] stands for this setting: Inhibitor 9 at 2 or 3 uM, Inhibitor 12 at 1 or 2 uM, day 15.

As to `CC(=O)N[C@H]1C(O)O[C@H](CO)[C@@H](O)[C@@H]1O` (stereo partly drawn) [GlcNAc, N-Acetylglucosamine], the “Tim3^−TCF-1^+ ratio of CD8^+ T cells (%)” value came out at 28.8% in the assay with OT-1 cells (w/o 2.6); 89.2% with P14 cells (Day6, w/o 55.0); 21.2% in the assay with P14 cells (Day9, w/o 3.5). Also, the activity at 60000 µM in the assay on OT-1 cells (Mus musculus, Splenocyte, 168 h, OT-1 cells, read-out: Proliferation fold, Normalized to W/O) worked out at 145%. The entries for the “Fold of proliferation, Normalized to W/O” value in the assay on P14 cells (Day6) and in the assay on P14 cells (Day9) were 2.47 fold and 1.44 fold, respectively. For the same compound, in the assay on B16-OVA tumor, the “tumor infiltrating OT-1 T cell numbers” value is recorded as “increased”. Moreover, in the assay on OT-1 splenocytes [1] (vs T cells not treated with sugar), the “viability and apoptotic characteristics” value is “enhanced viability and differential apoptotic characteristics”. Further, the “production of IL-2” value in the assay on OT-1 splenocytes [1] (vs no sugar) is listed as “significantly greater”. Moreover, the GSH/GSSG ratio result in the assay with OT-1 splenocytes [2] is listed as “greater”. Besides, in the assay with OT-1 splenocytes [2], the “NADPH/NADP+ ratio” value is listed as “greater”. For the same compound, in the assay with OT-1 splenocytes [2], the ROS result is listed as “significantly less”. The “cell surface anti-CLA (Cutaneous Lymphocyte-associated Antigen) staining” value in [3] is reported as “significant increase”. Also, the “maintenance of progenitor exhausted features of sorted Tim-3-TCF-GFP^+ TILs” value in the assay on TILs from B16-OVA tumor is recorded as “maintain more Tim-3^−TCF/GFP^+ cells”.
Consider K-Ras(G12C) Inhibitor 9, for which, in the assay on OT-I splenocytes, the “expression of inhibitory receptors (Tim-3+PD-1)” value is recorded as “decreased”. In addition, the “proliferation of CAR-T cells” value in the assay with anti-GD2 CAR-T cells (2 or 3 uM) is “facilitated the proliferation”. In the assay on anti-GD2 CAR-T cells (setting [4]), the “expression of inhibitory receptors (PD-1, LAG3, Tim-3 and CD39) of anti-GD2 CAR-T cells” value is “decreased the expression of inhibitory receptors”; the “progenitor features of anti-GD2 CAR-T cells” value was “increased progenitor features”.
